Experimental data as given in ChEMBL document CHEMBL1201862, “PubChem BioAssay data set” (2004).
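Protocol summary: plate cells (96-well), add compound at 5 concentrations, incubate 48 h, interpolate endpoints linearly. Abbreviation: GI50, concentration required for 50% inhibition of growth.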 Calls of active or inactive are those of the source. Cut-off read from the data, not from the text of the source: active = GI50 up to about 1.1 µM and inactive = higher.

How the values were obtained:
Test in all cases: inhibition of tumour cell growth, NCI panel, 48 h
OVCAR-8 = tested on: OVCAR-8
ACHN = tested on: ACHN
TK-10 = tested on: TK-10
DU-145 = tested on: DU-145
PC-3 = tested on: PC-3
KM12 = tested on: KM12
EKVX = tested on: EKVX
HT-29 = tested on: HT-29
NCI/ADR-RES = tested on: NCI/ADR-RES
SR = tested on: SR
A498 = tested on: A498
HOP-62 = tested on: HOP-62
DMS-114 = tested on: DMS-114
K562 = tested on: K562
MCF7 = tested on: MCF7
DMS-273 = tested on: DMS-273
HOP-18 = tested on: HOP-18
RPMI-8226 = tested on: RPMI-8226
CAKI-1 = tested on: CAKI-1
SNB-78 = tested on: SNB-78

CCc1cc2c(oc3cc4ccccc4cc32)c(=O)[nH]1
GI50 (OVCAR-8): > 10 µM (inactive) | GI50 (ACHN): > 10 µM (inactive) | GI50 (TK-10): > 10 µM (inactive) | GI50 (DU-145): > 10 µM (inactive) | GI50 (PC-3): > 10 µM (inactive) | GI50 (KM12): > 10 µM (inactive) | GI50 (EKVX): > 10 µM (inactive) | GI50 (HT-29): > 10 µM (inactive) | GI50 (NCI/ADR-RES): > 10 µM (inactive) | GI50 (SR): > 10 µM (inactive)

CNC(=O)OCc1nc(SC)n(C)c1CO
GI50 (OVCAR-8): > 100 µM (inactive) | GI50 (A498): > 100 µM (inactive) | GI50 (HOP-62): > 100 µM (inactive) | GI50 (DMS-114): > 100 µM (inactive) | GI50 (K562): > 100 µM (inactive) | GI50 (MCF7): > 100 µM (inactive) | GI50 (DMS-273): > 100 µM (inactive) | GI50 (KM12): > 100 µM (inactive) | GI50 (HOP-18): > 79.3 µM (inactive) | GI50 (EKVX): > 100 µM (inactive) | GI50 (HT-29): > 100 µM (inactive) | GI50 (RPMI-8226): > 100 µM (inactive) | GI50 (NCI/ADR-RES): > 100 µM (inactive) | GI50 (CAKI-1): > 100 µM (inactive) | GI50 (SNB-78): > 100 µM (inactive)

c1ccc2c(c1)c1ccccc1n2Cn1c2ccccc2c2ccccc21
GI50 (OVCAR-8): > 100 µM (inactive) | GI50 (A498): > 100 µM (inactive) | GI50 (HOP-62): > 100 µM (inactive) | GI50 (ACHN): > 100 µM (inactive) | GI50 (TK-10): > 100 µM (inactive) | GI50 (DU-145): > 100 µM (inactive) | GI50 (PC-3): > 100 µM (inactive) | GI50 (K562): > 100 µM (inactive) | GI50 (KM12): > 100 µM (inactive) | GI50 (EKVX): > 100 µM (inactive) | GI50 (HT-29): > 100 µM (inactive) | GI50 (RPMI-8226): > 100 µM (inactive) | GI50 (NCI/ADR-RES): > 100 µM (inactive) | GI50 (CAKI-1): > 100 µM (inactive) | GI50 (SR): > 100 µM (inactive)

O=S(=O)(/N=C(\NO)Nc1ccc(Cl)cc1)c1ccc(-c2ccccn2)s1
GI50 (OVCAR-8): 69.5 µM (inactive) | GI50 (HOP-62): 52.1 µM (inactive) | GI50 (ACHN): 35.6 µM (inactive) | GI50 (TK-10): 61.5 µM (inactive) | GI50 (DU-145): > 100 µM (inactive) | GI50 (PC-3): 38.8 µM (inactive) | GI50 (K562): 50.2 µM (inactive) | GI50 (KM12): 86.9 µM (inactive) | GI50 (EKVX): 34.3 µM (inactive) | GI50 (HT-29): 82.8 µM (inactive) | GI50 (NCI/ADR-RES): 30.9 µM (inactive) | GI50 (CAKI-1): 6.25 µM (inactive) | GI50 (SR): > 100 µM (inactive)

COc1ccc(C2c3cc4c(cc3OC(Nc3ccccc3)C2C)OCO4)cc1 (centres undefined)
GI50 (A498): 58.6 µM (inactive) | GI50 (HOP-62): > 100 µM (inactive) | GI50 (ACHN): 21.8 µM (inactive) | GI50 (TK-10): 91.6 µM (inactive) | GI50 (DU-145): 57.9 µM (inactive) | GI50 (PC-3): 28.3 µM (inactive) | GI50 (K562): 15.2 µM (inactive) | GI50 (MCF7): 23.6 µM (inactive) | GI50 (KM12): 28.6 µM (inactive) | GI50 (EKVX): 8.59 µM (inactive) | GI50 (HT-29): 31.7 µM (inactive) | GI50 (RPMI-8226): 26 µM (inactive) | GI50 (CAKI-1): 25.4 µM (inactive) | GI50 (SR): 2.42 µM (inactive)

CN(C)CCNC(=O)c1cccc2c1Nc1ccccc1S2
GI50 (OVCAR-8): 15.8 µM (inactive) | GI50 (A498): 10.6 µM (inactive) | GI50 (HOP-62): 15.7 µM (inactive) | GI50 (DMS-114): 6.76 µM (inactive) | GI50 (K562): 14.9 µM (inactive) | GI50 (MCF7): 13 µM (inactive) | GI50 (DMS-273): 13.7 µM (inactive) | GI50 (KM12): 12.7 µM (inactive) | GI50 (HOP-18): 11.9 µM (inactive) | GI50 (EKVX): 5.45 µM (inactive) | GI50 (HT-29): 11.7 µM (inactive) | GI50 (RPMI-8226): 9.57 µM (inactive) | GI50 (NCI/ADR-RES): 16.2 µM (inactive) | GI50 (SNB-78): 12.2 µM (inactive)

CCOC(=O)NC(=O)c1cn(C2CCCCC2)c(=O)n(C)c1=O
GI50 (OVCAR-8): > 100 µM (inactive) | GI50 (A498): > 100 µM (inactive) | GI50 (HOP-62): > 100 µM (inactive) | GI50 (ACHN): > 100 µM (inactive) | GI50 (TK-10): > 100 µM (inactive) | GI50 (DMS-114): > 100 µM (inactive) | GI50 (K562): > 100 µM (inactive) | GI50 (DMS-273): > 100 µM (inactive) | GI50 (KM12): > 100 µM (inactive) | GI50 (HOP-18): > 100 µM (inactive) | GI50 (HT-29): > 100 µM (inactive) | GI50 (RPMI-8226): > 100 µM (inactive) | GI50 (CAKI-1): > 100 µM (inactive) | GI50 (SNB-78): > 100 µM (inactive) | GI50 (SR): > 100 µM (inactive)

Cc1c(-c2cc3n(n2)C(c2cccs2)C(C#N)=C(c2ccccc2)N3)c(=O)n(-c2ccccc2)n1C (centres undefined)
GI50 (OVCAR-8): > 100 µM (inactive) | GI50 (A498): 82.8 µM (inactive) | GI50 (HOP-62): > 100 µM (inactive) | GI50 (DMS-114): 77.3 µM (inactive) | GI50 (K562): > 100 µM (inactive) | GI50 (MCF7): > 86.5 µM (inactive) | GI50 (DMS-273): > 91.6 µM (inactive) | GI50 (KM12): 94.2 µM (inactive) | GI50 (HOP-18): > 100 µM (inactive) | GI50 (EKVX): > 100 µM (inactive) | GI50 (HT-29): 43.7 µM (inactive) | GI50 (NCI/ADR-RES): > 86.3 µM (inactive) | GI50 (CAKI-1): 11.1 µM (inactive) | GI50 (SNB-78): > 100 µM (inactive)

CCOC(=O)/C=C(\C)c1ccc(C)cc1C
GI50 (OVCAR-8): > 100 µM (inactive) | GI50 (A498): > 100 µM (inactive) | GI50 (ACHN): > 100 µM (inactive) | GI50 (TK-10): 33.8 µM (inactive) | GI50 (DMS-114): > 100 µM (inactive) | GI50 (K562): 45.1 µM (inactive) | GI50 (DMS-273): > 100 µM (inactive) | GI50 (KM12): 72.3 µM (inactive) | GI50 (HOP-18): 45 µM (inactive) | GI50 (EKVX): > 100 µM (inactive) | GI50 (HT-29): > 100 µM (inactive) | GI50 (RPMI-8226): 7.28 µM (inactive) | GI50 (CAKI-1): > 100 µM (inactive) | GI50 (SNB-78): 38.1 µM (inactive) | GI50 (SR): 4.46 µM (inactive)

O=C1CC2(CCC(O)(c3ccccc3)C(C(=O)c3ccccc3)C2)C(=O)c2ccccc2N1 (centres undefined)
GI50 (OVCAR-8): > 100 µM (inactive) | GI50 (A498): > 100 µM (inactive) | GI50 (HOP-62): > 100 µM (inactive) | GI50 (TK-10): > 100 µM (inactive) | GI50 (DU-145): > 100 µM (inactive) | GI50 (PC-3): > 100 µM (inactive) | GI50 (K562): > 100 µM (inactive) | GI50 (MCF7): > 100 µM (inactive) | GI50 (EKVX): > 100 µM (inactive) | GI50 (HT-29): > 100 µM (inactive) | GI50 (NCI/ADR-RES): > 100 µM (inactive) | GI50 (CAKI-1): > 100 µM (inactive) | GI50 (SR): > 100 µM (inactive)

CNc1cc2c(c3ccccc13)C(CCl)CN2C(=O)c1cc2cc(OC)c(OC)c(OC)c2[nH]1 (centres undefined)
GI50 (OVCAR-8): 0.00123 µM (active) | GI50 (A498): 0.00261 µM (active) | GI50 (HOP-62): 0.00281 µM (active) | GI50 (ACHN): 0.000124 µM (active) | GI50 (TK-10): 0.00218 µM (active) | GI50 (DU-145): 0.000442 µM (active) | GI50 (PC-3): 0.00214 µM (active) | GI50 (K562): 0.00188 µM (active) | GI50 (MCF7): 0.000822 µM (active) | GI50 (KM12): 0.0038 µM (active) | GI50 (EKVX): 0.00381 µM (active) | GI50 (HT-29): 0.0013 µM (active) | GI50 (RPMI-8226): 0.00455 µM (active) | GI50 (NCI/ADR-RES): 0.000991 µM (active) | GI50 (CAKI-1): 0.000703 µM (active) | GI50 (SR): 0.000275 µM (active)

OCc1cc2ccncc2c2c1[nH]c1ccccc12
GI50 (OVCAR-8): 4.95 µM (inactive) | GI50 (A498): 4.5 µM (inactive) | GI50 (ACHN): 3.83 µM (inactive) | GI50 (TK-10): 11.8 µM (inactive) | GI50 (DMS-114): 6.38 µM (inactive) | GI50 (K562): 7.55 µM (inactive) | GI50 (DMS-273): 4.04 µM (inactive) | GI50 (KM12): 4.68 µM (inactive) | GI50 (HOP-18): 2.52 µM (inactive) | GI50 (EKVX): 3.91 µM (inactive) | GI50 (HT-29): 4.58 µM (inactive) | GI50 (RPMI-8226): 6.31 µM (inactive) | GI50 (CAKI-1): 4.65 µM (inactive) | GI50 (SNB-78): 13.2 µM (inactive) | GI50 (SR): 2.83 µM (inactive)
